One assay concerns the target T1, PDE4B1 (Homo sapiens, UniProt Q07343).
T1 construct: purchased Sigma
Kind of assay: In vitro inhibitory effect on PDE4B1 enzyme (AMP-Glo assay). The class given is biochemical. The protocol: (§1) 1. Table 1 Main reagents and consumables for in vitro detection of inhibitory effect
(§2) 2. Preparation of experimental buffers Reaction buffer (5×): 50 mM Tris-HCl (buffer), 50 mM MgCl2, 0.5% BSA, 0.25% Tween-20, pH 7.4, stored at -20°C. 3. […] The starting concentration of the reference substance serial dilution was the Low control, and 1% DMSO-reaction buffer served as the High control. • 3) The enzyme was diluted to the desired concentration with 1× reaction buffer, and 4 µL of the diluted solution was transferred to the assay plate. After centrifugation, the 384-well low dead-volume microplate was sealed with sealing film and incubated in the incubator at 23°C for 15 minutes. • 4) The substrate cAMP was diluted to the desired concentration using 1× reaction buffer, and 5 µL of the diluted solution was transferred to the assay plate. After centrifugation, the plate was sealed again and incubated in the incubator at 23°C for 60 minutes (PDE3A) or 10 minutes (PDE4B1). • 5) Then, 5 µL of Reagent I from the AMP-Glo™ Assay Kit was added to the assay plate. After centrifugation and sealing, the plate was incubated in the incubator at 23°C for 60 minutes. • 6) The detection solution was prepared according to the AMP-Glo™ Assay Kit instructions, and 10 µL of the detection solution was added to the assay plate. After centrifugation and sealing, the plate was incubated in the incubator at 23°C for 60 minutes. • 7) The readout was recorded using a multimode microplate reader. 4. […] 5.

In another assay the target is T2, PDE3A (Homo sapiens, UniProt Q14432).
T2 construct: purchased BPS
Kind of assay: In vitro inhibitory effect on PDE3A enzyme (AMP-Glo assay). The class given is biochemical. The method, then: as §1, §2

Setting [1] is: AMP-Glo Assay Kit, substrate cAMP, 23°C, 10 minutes, read-out: PDE4B1 (IC50).
Setting [2] is: AMP-Glo Assay Kit, substrate cAMP, 23°C, 60 minutes, read-out: PDE3A (IC50).

The structures appear in SMILES notation. Where a name gives a salt, the structure may show the parent alone. Read-outs that look alike come from different tables or passages of the source.

T2 sequence (Q14432 whole entry): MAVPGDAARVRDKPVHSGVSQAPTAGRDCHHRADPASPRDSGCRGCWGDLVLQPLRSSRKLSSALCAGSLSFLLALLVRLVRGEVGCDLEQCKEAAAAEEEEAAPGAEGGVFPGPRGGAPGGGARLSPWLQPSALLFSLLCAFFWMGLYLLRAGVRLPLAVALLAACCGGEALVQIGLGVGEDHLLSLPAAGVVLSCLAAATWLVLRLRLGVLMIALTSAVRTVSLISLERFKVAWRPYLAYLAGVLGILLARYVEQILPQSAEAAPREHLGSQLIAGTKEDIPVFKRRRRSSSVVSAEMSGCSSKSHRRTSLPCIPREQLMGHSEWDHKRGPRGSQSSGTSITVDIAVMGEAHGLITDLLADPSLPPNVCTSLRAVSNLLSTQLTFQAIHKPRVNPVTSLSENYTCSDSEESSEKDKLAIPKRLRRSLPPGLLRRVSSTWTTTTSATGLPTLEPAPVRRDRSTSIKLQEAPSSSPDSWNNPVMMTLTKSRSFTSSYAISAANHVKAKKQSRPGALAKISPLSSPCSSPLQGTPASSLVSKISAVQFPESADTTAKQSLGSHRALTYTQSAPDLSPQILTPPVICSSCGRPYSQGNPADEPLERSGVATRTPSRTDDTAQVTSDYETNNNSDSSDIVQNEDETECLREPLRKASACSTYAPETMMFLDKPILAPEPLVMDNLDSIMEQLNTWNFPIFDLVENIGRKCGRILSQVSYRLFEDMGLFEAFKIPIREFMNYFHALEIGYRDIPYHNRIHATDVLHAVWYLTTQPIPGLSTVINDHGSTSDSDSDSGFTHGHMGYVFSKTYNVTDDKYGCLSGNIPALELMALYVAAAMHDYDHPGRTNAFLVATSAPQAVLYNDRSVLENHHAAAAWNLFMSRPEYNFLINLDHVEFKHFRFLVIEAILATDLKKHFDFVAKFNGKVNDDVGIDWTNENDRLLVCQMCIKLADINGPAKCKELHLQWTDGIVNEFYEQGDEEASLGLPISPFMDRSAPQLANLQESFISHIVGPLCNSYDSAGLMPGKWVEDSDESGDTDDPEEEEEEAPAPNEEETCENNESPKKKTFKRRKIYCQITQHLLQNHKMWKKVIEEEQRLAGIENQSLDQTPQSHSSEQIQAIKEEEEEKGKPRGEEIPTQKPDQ
T1 sequence (Q07343 whole entry): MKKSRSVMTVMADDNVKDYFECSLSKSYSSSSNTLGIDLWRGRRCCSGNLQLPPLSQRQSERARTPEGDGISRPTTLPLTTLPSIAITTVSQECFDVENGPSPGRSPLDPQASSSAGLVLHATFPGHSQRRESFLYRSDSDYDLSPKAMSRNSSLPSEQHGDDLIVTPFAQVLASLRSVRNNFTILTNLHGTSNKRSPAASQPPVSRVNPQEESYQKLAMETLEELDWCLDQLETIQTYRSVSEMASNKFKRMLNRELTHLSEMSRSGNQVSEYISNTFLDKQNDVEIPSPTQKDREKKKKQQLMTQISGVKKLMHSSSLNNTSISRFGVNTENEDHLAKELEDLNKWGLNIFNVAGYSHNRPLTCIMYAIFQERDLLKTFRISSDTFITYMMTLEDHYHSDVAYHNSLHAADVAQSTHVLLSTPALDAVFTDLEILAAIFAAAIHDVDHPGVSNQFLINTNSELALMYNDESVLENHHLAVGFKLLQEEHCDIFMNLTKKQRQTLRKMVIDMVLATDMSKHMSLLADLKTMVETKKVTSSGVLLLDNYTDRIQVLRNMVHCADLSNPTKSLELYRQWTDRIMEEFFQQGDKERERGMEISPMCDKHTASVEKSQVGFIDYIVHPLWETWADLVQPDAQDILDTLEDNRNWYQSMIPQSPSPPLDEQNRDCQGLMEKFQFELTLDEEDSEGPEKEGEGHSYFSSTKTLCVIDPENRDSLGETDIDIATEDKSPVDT

Turning to `CCOc1cc2c(cc1OC)-c1cc(N(CCCN)c3c(C)cc(C)cc3C)nc(=O)n1CC2` [Compound 81], the half-inhibitory concentration (IC50) at PDE4B1 (setting [1]) is 64.4 nM; at PDE3A (setting [2]) it was 0.33 nM.
Turning to `COc1cc2c(cc1OC)-c1cc(N(CCNC(=O)N3CCOCC3CO)c3c(C)cc(C)cc3C)nc(=O)n1CC2` (centres unmarked) [Compound 48], the IC50 on PDE4B1 stood at 579 nM; against PDE3A it was 0.16 nM.
Regarding `COc1cc2c(cc1OC)-c1cc(N(c3c(C)cc(C)cc3C)C3CN(C(N)=O)C3)nc(=O)n1CC2` [Compound 32], the IC50 was 238 nM on PDE4B1 and 0.21 nM against PDE3A.
As for `CCOc1cc2c(cc1OC)-c1cc(N(CCNC(=O)c3nnc(C)o3)c3c(C)cc(C)cc3C)nc(=O)n1CC2` [Compound 65], the IC50 on PDE4B1 (setting [1]) turned out to be 10.8 nM; at PDE3A (setting [2]), 0.036 nM.
As to `COc1cc2c(cc1OC)C(C)Cn1c-2cc(=Nc2c(C)cc(C)cc2C)n(CCNC(N)=O)c1=O` (centres unmarked) [Compound 9], the 50% inhibitory concentration (IC50) against PDE4B1 is 114 nM; against PDE3A, 5.66 nM.
On to `COc1cc2c(cc1OCC1CC1)CCn1c-2cc(=Nc2c(C)cc(C)cc2C)n(CCNC(=O)c2c(O)nnn2C)c1=O` [Compound 27], for which the IC50 at PDE4B1 (setting [1]) worked out at 918 nM; at PDE3A (setting [2]) it was 2.16 nM.
Take `CCOc1cc2c(cc1OC)-c1cc(=Nc3c(C)cc(C)cc3C)n(CCNC(=O)NOC)c(=O)n1CC2` [Compound 85]: the IC50 against PDE4B1 was 40.5 nM; on PDE3A, 0.31 nM.
In the case of `CCOc1cc2c(cc1OC)-c1cc(N(c3c(C)cc(C)cc3C)C3CC(NC(=O)c4c(O)nnn4C)C3)nc(=O)n1CC2` (centres unmarked) [Compound 31], the concentration for half-maximal inhibition (IC50) on PDE4B1 worked out at 193 nM; against PDE3A, 0.57 nM.
For `COc1cc2c(cc1OC)-c1cc(N(c3c(C)cc(C)cc3C)C3CN(C(=O)c4ncon4)C3)nc(=O)n1CC2` [Compound 51], the concentration for half-maximal inhibition (IC50) was found to be 1450 nM on PDE4B1 (setting [1]) and 89.5 nM at PDE3A (setting [2]).
With `CNCCn1c(=Nc2c(C)cc(C)cc2C)cc2n(c1=O)CCc1cc(OC)c(OC)cc1-2` [Compound 16], on PDE3A (setting [2]), the IC50 was found to be 6.63 nM.
Turning to `COCCOc1cc2c(cc1OC)-c1cc(=Nc3c(C)cc(C)cc3C)n(CCNC(=O)c3c(O)nnn3C)c(=O)n1CC2` [Compound 28], the figures for the 50% inhibitory concentration (IC50) against PDE4B1 and on PDE3A were 478 nM and 0.46 nM, respectively.
Regarding `COc1cc2c(cc1OC)-c1cc(N(c3c(C)cc(C)cc3C)C3CN(C(=O)c4cnc[nH]4)C3)nc(=O)n1CC2` [Compound 49], the IC50 at PDE3A (setting [2]) worked out at 325 nM.
As to `COc1cc2c(cc1OC)-c1cc(=Nc3c(C)cc(C)cc3C)n(CCNC(=O)N3CCn4c(nnc4C(F)(F)F)C3)c(=O)n1CC2` [Compound 33], the results for the IC50 at PDE4B1 and at PDE3A were 3760 nM and 4.78 nM, respectively.
On to `COc1cc2c(cc1OC)S(=O)(=O)CCn1c-2cc(=Nc2c(C)cc(C)cc2C)n(CCNC(N)=O)c1=O` [Compound 21], for which the IC50 on PDE4B1 is 6910 nM; on PDE3A, 1000 nM.
For the compound `CCOc1cc2c(cc1OC)-c1cc(N(CC(=O)O)c3c(C)cc(C)cc3C)nc(=O)n1CC2` [Compound 76], the figures for the IC50 against PDE4B1 and at PDE3A were 172 nM and 0.1 nM, respectively.
Turning to `COc1cc2c(cc1OC)-c1cc(=Nc3c(C)cc(C)cc3C)n(CCN3CCn4c(nnc4C(F)(F)F)C3)c(=O)n1CC2` [Compound 34], the IC50 at PDE3A worked out at 6.4 nM.
`COc1cc2c(cc1OC)-c1cc(N(c3c(C)cc(C)cc3C)C3CN(C(=O)c4c(O)nnn4C)C3)nc(=O)n1CC2` [Compound 47]: the IC50 on PDE3A (setting [2]) is 72.3 nM.
Regarding `COc1cc2c(cc1OCc1ccccc1)CCn1c-2cc(=Nc2c(C)cc(C)cc2C)n(CCNC(N)=O)c1=O` [Compound 24], the half-maximal inhibitory concentration (IC50) at PDE3A (setting [2]) was determined as 1010 nM.
Consider `Cc1cc(C)c(N=c2cc3n(c(=O)n2CCNC(N)=O)CCc2cc4c(cc2-3)OCCO4)c(C)c1` [Compound 13], for which, on PDE3A, half-maximal inhibition (IC50) required 44.6 nM.
Same read-out and setting: in the case of `COc1cc2c(cc1OC1CCN(C)C1)CCn1c-2cc(=Nc2c(C)cc(C)cc2C)n(CCNC(N)=O)c1=O` (centres unmarked) [Compound 37] it was 60.1 nM.
Turning to `COc1cc2c(cc1OC)-c1c/c(=N\c3c(C)cc(C)cc3C)n(C)c(=O)n1CC2` [Trequinsin Hydrochlorid, Trequinsin hydrochloride, reference compound], the concentration for half-maximal inhibition (IC50) at PDE3A (setting [2]) was found to be 0.227 nM.
In turn, `Cc1cc(C)c(N=c2cc3n(c(=O)n2CCNC(N)=O)CCc2cc4c(cc2-3)OCO4)c(C)c1` [Compound 11] displayed a half-inhibitory concentration (IC50) against PDE3A of 117 nM.

These data come from patent EP4714952A1, “COMPOUND AND USE THEREOF” (Autobio Group Co., Ltd., priority 2023, dated 2025).
